# Results from patent US10138255B2, “Piperazine derivatives as HIV protease inhibitors” (Merck Sharp & Dohme Corp., priority 2014, dated 2018).
# System: HIV-1 (H9IIIB strain)
# Assay: Cell-Based HIV Infection Assay Using a Reporter (MT4-GFP cells)
# Conditions: Human immunodeficiency virus 1, inflection point (IP) of viral growth inhibition; MT4-GFP cells infected with HIV-1 H9IIIB; 50% normal human serum; mean of at least two independent experiments; read-out: Cell Based IP (50% NHS)
# Method in brief: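 Inflection point from a 4-parameter curve of % viral growth inhibition, normalised to DMSO and triple-drug controls, using the 48 h/24 h ratio of GFP-positive cells (R0). MT4-GFP cells pre-infected 24 h with HIV-1 H9IIIB at low MOI; compounds tested in 50% normal human serum, 0.4% DMSO; mean of ≥2 experiments.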
row,SMILES,EC50
1,"C[C@@H]1CC([C@H](c2ccc(F)cc2)[C@H](N)C(=O)Nc2ccc(F)c(F)c2CC[C@H]2CN[C@@H]3CCCS(=O)(=O)N2C3)C[C@H](C)O1 (stereo partly drawn) [Example 166, (βR)-β-[(2R,6S)-2,6-dimethyltetrahydro-2H-pyran-4-yl]-N-(2-{2-[(6R,9S)-2,2-dioxido-2-thia-1,7-diazabicyclo[4.3.1]dec-9-yl]ethyl}-3,4-difluorophenyl)-4-fluoro-L-phenylalaninamide]",25 nM
2,"COC(=O)N[C@H](C(=O)Nc1cccc(F)c1CC[C@H]1CN[C@@H]2CCCS(=O)(=O)N1C2)[C@@]1(c2ccc(Cl)cc2)C[C@@H](C)O[C@@H](C)C1 [Example 167, methyl {(1S)-1-[(2R,4r,6S)-4-(4-chlorophenyl)-2,6-dimethyltetrahydro-2H-pyran-4-yl]-2-[(2-{2-[(6R,9S)-2,2-dioxido-2-thia-1,7-diazabicyclo[4.3.1]dec-9-yl]ethyl}-3-fluorophenyl)amino]-2-oxoethyl}carbamate]",27 nM
3,"C[C@@H]1C[C@](c2ccc(Cl)cc2)([C@H](N)C(=O)Nc2cccc(F)c2CC[C@H]2CN[C@@H]3CCCS(=O)(=O)N2C3)C[C@H](C)O1 [Example 168, (2S)-2-amino-2-[(2R,4r,6S)-4-(4-chlorophenyl)-2,6-dimethyltetrahydro-2H-pyran-4-yl]-N-(2-{2-[(6R,9S)-2,2-dioxido-2-thia-1,7-diazabicyclo[4.3.1]dec-9-yl]ethyl}-3-fluorophenyl)ethanamide]",170 nM
4,"COC(=O)N[C@H](C(=O)N[C@H]1CCCC[C@@H]1CC[C@H]1CN[C@@H]2CCCS(=O)(=O)N1C2)[C@@]1(c2ccc(Cl)cc2)C[C@@H](C)O[C@@H](C)C1 [Example 169, methyl [(1S)-1-[(2R,4r,6S)-4-(4-chlorophenyl)-2.6-dimethyltetrahydro-2H-pyran-4-yl]-2-{[(1S,2R)-2-{2-[(6R,9S)-2,2-dioxido-2-thia-1,7-diazabicyclo[4.3.1]dec-9-yl]ethyl}cyclohexyl]amino}-2-oxoethyl]carbamate]",89 nM
5,"C[C@@H]1C[C@](c2ccc(Cl)cc2)([C@H](N)C(=O)N[C@H]2CCCC[C@@H]2CC[C@H]2CN[C@@H]3CCCS(=O)(=O)N2C3)C[C@H](C)O1 [Example 170, (2S)-2-amino-2-[(2R,4r,6S)-4-(4-chlorophenyl)-2,6-dimethyltetrahydro-2H-pyran-4-yl]-N-[(1S,2R)-2-{2-[(6R,9S)-2,2-dioxido-2-thia-1,7-diazabicyclo[4.3.1]dec-9-yl]ethyl}cyclohexyl]ethanamide]",230 nM
6,"CO[C@H]1CC[C@](c2ccc(Cl)cc2)([C@H](N)C(=O)Nc2cccc(F)c2CC[C@H]2CN[C@@H]3CCCS(=O)(=O)N2C3)CC1 [Example 171, (2S)-2-amino-2-[trans-1-(4-chlorophenyl)-4-methoxycyclohexyl]-N-(2-{2-[(6R,9S)-2,2-dioxido-2-thia-1,7-diazabicyclo[4.3.1]dec-9-yl]ethyl}-3-fluorophenyl)ethanamide]",34 nM
7,"COC(=O)N[C@H](C(=O)Nc1cccc(F)c1CCC1CNC2CCCS(=O)(=O)N1C2)[C@@H](c1ccc(Cl)cc1)C1CCOC(CC(F)(F)F)C1 (stereo partly drawn) [Example 172, methyl {(1S,2R)-2-(4-chlorophenyl)-1-({2-[2-(2,2-dioxido-2-thia-1,7-diazabicyclo[4.3.1]dec-9-yl)ethyl]-3-fluorophenyl}carbamoyl)-2-[2-(2,2,2-trifluoroethyl)tetrahydro-2H-pyran-4-yl]ethyl}carbamate]",38 nM
8,"N[C@H](C(=O)Nc1cncc(F)c1CC[C@H]1CN[C@@H]2CCCS(=O)(=O)N1C2)[C@@H](c1ccc(Cl)cc1)C1CCOCC1 [Example 173, (βR)-4-chloro-N-(4-{2-[(6R,9S)-2,2-dioxido-2-thia-1,7-diazabicyclo[4.3.1]dec-9-yl]ethyl}-5-fluoropyridin-3-yl)-β-(tetrahydro-2H-pyran-4-yl)-L-phenylalaninamide]",23 nM
9,"COC(=O)N[C@H](C(=O)Nc1cncc(F)c1CC[C@H]1CN[C@@H]2CCCS(=O)(=O)N1C2)[C@@H](c1ccc(Cl)cc1)C1CCOCC1 [Example 174, methyl [(1S,2R)-2-(4-chlorophenyl)-1-[(4-{2-[(6R,9S)-2,2-dioxido-2-thia-1,7-diazabicyclo[4.3.1]dec-9-yl]ethyl}-5-fluoropyridin-3-yl)carbamoyl]-2-(tetrahydro-2H-pyran-4-yl)ethyl]carbamate]",89 nM
10,"COC(=O)N[C@H](C(=O)Nc1cccc(F)c1CC[C@H]1CN[C@@H]2CCCS(=O)(=O)N1C2)C1(c2ccc(Cl)cc2)CCN(S(C)(=O)=O)CC1 [Example 175, methyl {(1S)-1-[4-(4-chlorophenyl)-1-(methylsulfonyl)piperidin-4-yl]-2-[(2-{2-[(6R,9S)-2,2-dioxido-2-thia-1,7-diazabicyclo[4.3.1]dec-9-yl]ethyl}-3-fluorophenyl)amino]-2-oxoethyl}carbamate]",120 nM
11,"CS(=O)(=O)N1CCC(c2ccc(Cl)cc2)([C@H](N)C(=O)Nc2cccc(F)c2CC[C@H]2CN[C@@H]3CCCS(=O)(=O)N2C3)CC1 [Example 176, (2S)-2-amino-2-[4-(4-chlorophenyl)-1-(methylsulfonyl)piperidin-4-yl]-N-(2-{2-[(6R,9S)-2,2-dioxido-2-thia-1,7-diazabicyclo[4.3.1]dec-9-yl]ethyl}-3-fluorophenyl)ethanamide]",150 nM
12,"CCCN[C@H](C(=O)N[C@H]1CCC[C@@H]1CC[C@H]1CN[C@@H]2CCCS(=O)(=O)N1C2)[C@@H](c1ccc(Cl)cc1)C1CCOC(C)(C)C1 (stereo partly drawn) [Example 177, (βR)-4-chloro-β-(2,2-dimethyltetrahydro-2H-pyran-4-yl)-N-[(1S,2R)-2-{2-[(6R,9S)-2,2-dioxido-2-thia-1,7-diazabicyclo[4.3.1]dec-9-yl]ethyl}cyclopentyl]-Nα-propyl-L-phenylalaninamide]",400 nM
13,"COC(=O)N[C@H](C(=O)Nc1cncc(F)c1CC[C@H]1CN[C@@H]2CCCS(=O)(=O)N1C2)[C@@H](c1ccc(F)cc1)C1CCOCC1 [Example 178, methyl {(1S)-2-[(4-{2-[(6R,9S)-2,2-dioxido-2-thia-1,7-diazabicyclo[4.3.1]dec-9-yl]ethyl}-5-fluoropyridin-3-yl)amino]-1-[(R)-(4-fluorophenyl)(tetrahydro-2H-pyran-4-yl)methyl]-2-oxoethyl}carbamate]",160 nM
14,"CC1(C)CC([C@H](c2ccc(F)cc2)[C@H](N)C(=O)Nc2ccc(F)c(F)c2CC[C@H]2CN[C@@H]3CCCS(=O)(=O)N2C3)CCO1 (stereo partly drawn) [Example 179, (βR)-β-(2,2-dimethyltetrahydro-2H-pyran-4-yl)-N-(2-{2-[(6R,9S)-2,2-dioxido-2-thia-1,7-diazabicyclo[4.3.1]dec-9-yl]ethyl}-3,4-difluorophenyl)-4-fluoro-L-phenylalaninamide]",31 nM
15,"CO[C@H]1CC[C@H]([C@H](c2ccc(F)cc2)[C@H](N)C(=O)Nc2ccc(F)c(F)c2CC[C@H]2CN[C@@H]3CCCS(=O)(=O)N2C3)CC1 [Example 180, (βR)-N-(2-{2-[(6R,9S)-2,2-dioxido-2-thia-1,7-diazabicyclo[4.3.1]dec-9-yl]ethyl}-3,4-difluorophenyl)-4-fluoro-β-[(1r,4R)-4-methoxycyclohexyl]-L-phenylalaninamide]",11 nM
16,"CC1(C)CC([C@H](c2ccc(Cl)cc2)[C@H](NCC2CC2)C(=O)N[C@H]2CCC[C@@H]2CC[C@H]2CN[C@@H]3CCCS(=O)(=O)N2C3)CCO1 (stereo partly drawn) [Example 181, (βR)-4-chloro-Nα-(cyclopropylmethyl)-β-(2,2-dimethyltetrahydro-2H-pyran-4-yl)-N-[(1S,2R)-2-{2-[(6R,9S)-2,2-dioxido-2-thia-1,7-diazabicyclo[4.3.1]dec-9-yl]ethyl)cyclopentyl]-L-phenylalaninamide]",640 nM
17,"COCCN[C@H](C(=O)N[C@H]1CCC[C@@H]1CC[C@H]1CN[C@@H]2CCCS(=O)(=O)N1C2)[C@@H](c1ccc(Cl)cc1)C1CCOC(C)(C)C1 (stereo partly drawn) [Example 182, (βR)-4-chloro-β-(2,2-dimethyltetrahydro-2H-pyran-4-yl)-N-[(1S,2R)-2-{2-[(6R,9S)-2,2-dioxido-2-thia-1,7-diazabicyclo[4.3.1]dec-9-yl]ethyl}cyclopentyl]-Nα-(2-methoxyethyl)-L-phenylalaninamide]",70 nM
18,"CC[C@H](C)N[C@H](C(=O)N[C@H]1CCC[C@@H]1CC[C@H]1CN[C@@H]2CCCS(=O)(=O)N1C2)[C@@H](c1ccc(Cl)cc1)C1CCOC(C)(C)C1 (stereo partly drawn) [Example 183, (βR)-4-chloro-β-(2,2-dimethyltetrahydro-2H-pyran-4-yl)-N-[(1S,2R)-2-{2-[(6R,9S)-2,2-dioxido-2-thia-1,7-diazabicyclo[4.3.1]dec-9-yl]ethyl}cyclopentyl]-Nα-[(1S)-1-methylpropyl]-L-phenylalaninamide]",1300 nM
19,"CC1(C)CC([C@H](c2ccc(Cl)cc2)[C@H](NCCCC(F)(F)F)C(=O)N[C@H]2CCC[C@@H]2CC[C@H]2CN[C@@H]3CCCS(=O)(=O)N2C3)CCO1 (stereo partly drawn) [Example 184, (βR)-4-chloro-β-(2,2-dimethyltetrdhydro-2H-pyran-4-yl)-N-[(1S,2R)-2-{2-[(6R,9S)-2,2-dioxido-2-thia-1,7-diazabicyclo[4.3.1]dec-9-yl]ethyl}cyclopentyl]-Nα-(4,4,4-trifluorobutyl)-L-phenylalaninamide]",330 nM
20,"N[C@H](C(=O)Nc1cccc(F)c1CC[C@H]1CN[C@@H]2CCCS(=O)(=O)N1C2)C1(c2ccc(Cl)cc2)CCNCC1 [Example 185, (2S)-2-amino-2-[4-(4-chlorophenyl)piperidin-4-yl]-N-(2-{2-[(6R,9S)-2,2-dioxido-2-thia-1,7-diazabicyclo[4.3.1]dec-9-yl]ethyl}-3-fluorophenyl)ethanamide]",3300 nM
21,"CS(=O)(=O)N1CCC([C@H](c2ccc(F)cc2)[C@H](N)C(=O)Nc2cccc(F)c2CC[C@H]2CN[C@@H]3CCCS(=O)(=O)N2C3)CC1 [Example 186, (βR)-N-(2-{2-[(6R,9S)-2,2-dioxido-2-thia-1,7-diazabicyclo[4.3.1]dec-9-yl]ethyl}-3-fluorophenyl)-4-fluoro-β-[1-(methylsulfonyl)piperidin-4-yl]-L-phenylalaninamide]",33 nM
